Measured values reported in patent US5591758A, “Organic nitrates, processes for their preparation and their use in the treatment of cardiovascular diseases” (Laboratoires Hoechst, SA, priority 1991, dated 1997).
pIC50: −log10 of the molar value. Structures can show the parent of a compound that is named as a salt.

Legend:
anesthetised pigs = assay: Haemodynamic effects on anesthetised pigs; assay type: in vivo, pigs ("German land" race)
Protocol: Haemodynamic effects of the compounds according to the invention on anesthetised pigs or dogs
Pigs are of "German land" race (20-26 kg) and are used after fasting overnight.
In the case of pigs, sedation, analgesia and anesthesia are induced by ketamine HCl (20 mg/kg i.m.), methonidate HCl (10 mg/kg i.m.), xylacine HCl (3 mg/kg i.m.) and sodium pentobarbitol (25-30 mg/kg as bolus i.v. or 0.16 mg/kg/min as i.v. perfusion).
The pigs or dogs are placed under artificial respiration in ambient air. Analysis of the blood gases (pO2, pCO2) is carried out at regular intervals and oxygen can be supplied via the respirator, if necessary.
The haemodynamic parameters recorded include the left ventricular pressure (LVP; Millar PC350 Tip catheter inserted via the carotid artery), systemic blood pressure (BPs, BPd; full catheter in a femoral artery), the end pressure of the left ventricular diastole (LVEDP), the ventricular contractility (LVPdp/dtmax) and the heart rate (HR).
The haemodynamic variables are recorded continuously for 1 to 3 hours, as a function of the period of action of the compound.
The effects of the compounds studied are shown as the absolute difference with respect to the base value (bv) measured before administration of the compounds and are shown in Table VII (a,b,c).
An antianginal activity is estimated by a fall in the BPs and the LVEDP (fall in venous return).

thoracic aorta = assay: Vasorelaxant effect on isolated vessels (rat thoracic aorta rings without endothelium, precontracted with noradrenalin); parameters: species or system Wistar rats; conditions: for Emax: Rattus norvegicus, maximum inhibition of noradrenalin effect, 10^-8 to 10^-4 M substance, read-out: Maximum Relaxation; for pIC50: rat aorta, 10^-7 M noradrenalin contraction
Outline: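 Endothelium-denuded thoracic aorta rings from Wistar rats, held in Krebs-Ringer buffer (pH 7.4, 37 °C, 95% O2/5% CO2) under isometric tension and precontracted with 10^-7 M noradrenalin, received cumulative compound (10^-8 to 10^-4 M). Maximum relaxation given as percent; IC50 calculated when relaxation exceeded 50%.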

[1] = test system: isolated pulmonary vessel; assay: Relaxant activity on blood vessels isolated from guinea pigs (pulmonary artery); conditions: Cavia porcellus; guinea pig pulmonary artery, K+ depolarised, Ca2+ contraction; read-out: IC50 (relaxation of 50%)
Protocol: Determination of the relaxant activity of the compounds according to the invention on blood vessels isolated from guinea pigs.
The pulmonary artery of male guinea pigs (350-500 g) is isolated and cut into spiral tracts (1 mm wide, 15 mm long). […] After having removed the calcium from the tissues (Tyrode without calcium and 0.2 mM EDTA), the tracts are depolarised in the presence of a concentrated solution of K^+ ions (40 mM), which is produced by replacing the NaCl by equimolar amounts of KCl, and a contraction of long duration is then induced by Ca^2+ ions (0.5 mM).
The compounds studied are then introduced into the organ cell in increasing concentrations.
Each compound is tested on at least four vessel spiral tracts.

[2] = Stability in water (seen in optical rotation); assay type: physicochemical; conditions: water (c 0.6)

## O=C(N[C@H]1CO[C@H]2[C@@H]1OC[C@@H]2O[N+](=O)[O-])[C@@H]1CSCN1 [Compound 30, 5-[[(4-L-Thiazolidinyl)carbonyl]amino]-5-deoxy-2-O-nitro-1,4:3,6-dianhydro-L-iditol monohydrochloride]
Anesthetised pigs; pigs, 3,0 mg/kg i.d.
  BPs (min), period of action: > 60 min
  BPs, difference to base value: -40 mmHg
  LVRDP (min), period of action: > 60 min
  LVRDP, difference to base value: -2,0 mmHg
Thoracic aorta
  Emax: 100%
  pIC50: 5.00
[1]
  pIC50: 4.49

## CC1(C)N[C@H](C(=O)N[C@H]2CO[C@H]3[C@@H]2OC[C@@H]3O[N+](=O)[O-])CS1 [Compound 32, 5-[[(2,2-Dimethyl-4-L-thiazolidinyl)carbonyl]amino]-5-deoxy-2-O-nitro-1,4:3,6-dianhydro-L-iditol monohydrochloride]
Anesthetised pigs; pigs, 3,0 mg/kg i.d.
  BPs (min), period of action: > 180 min
  BPs, difference to base value: -30 mmHg
  LVRDP (min), period of action: > 180 min
  LVRDP, difference to base value: -4,0 mmHg
Thoracic aorta
  Emax: 100%
  pIC50: 4.82
[2]
  stability in water: instability of the product in water

## O=C(N[C@H]1CO[C@H]2[C@@H]1OC[C@@H]2O[N+](=O)[O-])c1ccccc1SCc1ccccc1 [Compound 39]
Anesthetised pigs; pigs, 10,0 mg/kg i.d.
  BPs (min), period of action: > 90 min
  BPs, difference to base value: -5 mmHg
  LVRDP (min), period of action: > 90 min
  LVRDP, difference to base value: -1,0 mmHg
Thoracic aorta
  Emax: 80%
  pIC50: 4.30
[1]
  pIC50: 6.00

## CC1(C)SC[C@@H](C(=O)NCC(=O)N[C@H]2CO[C@H]3[C@@H]2OC[C@@H]3O[N+](=O)[O-])N1C=O [Compound 48, 5-[[2-[[(3-Formyl-2,2-dimethyl-4-L-thiazolidinyl)carbonyl]amino]-1-oxoethyl]amino]-5-deoxy-2-O-nitro-1,4:3,6-dianhydro-L-iditol]
Anesthetised pigs; pigs, 10,0 mg/kg i.d.
  BPs (min), period of action: > 180 min
  BPs, difference to base value: -25 mmHg
  LVRDP (min), period of action: > 180 min
  LVRDP, difference to base value: -4,0 mmHg
Thoracic aorta
  Emax: 25%
  pIC50: < 4.00
[1]
  pIC50: < 4.00
